According to a melting point compilation (Tetko et al.; mined from patent text by program, amines drawn as free bases though some values may be those of a salt):

Compound | melting point [°C]
O=C(Cc1csc(Nc2ccccc2)n1)NC1CCN(Cc2ccc(Cl)c(Cl)c2)CC1 | 191 to 192
Cc1cc(C)c2c(=O)c(N)coc2c1 | 120 to 121
O=c1c2ccccc2[nH]c2c(OCCN(CCCl)CCCl)cccc12 | 131 to 133
Cc1ccc(-n2cc(-c3cccn4nc(Nc5ccc(C6CCNCC6)cc5)nc34)cn2)cc1 | 216 to 218
COc1cc(C=O)ccc1OCCBr | 61 to 64
CC(=O)Cc1ccc(NC(=O)/C=C/c2cnn(C)c2-c2ccc(F)cc2)cc1 | 186 to 187
Cc1cc2cnc(OCCc3ccc(OC(C)(C)C)cc3)nc2o1 | 75
CCc1c(-c2ccc(OCc3ccccc3)cc2)c2c(COCCCCCN3CCCCC3)cc3c(OCc4ccccc4)ccc1n32 | 106 to 107
CN(C)C(=N[N+](=O)[O-])NCc1cnc(Cl)s1 | 155 to 160
CNC(=O)[C@H]1CN(c2ccc3c(c2)oc(=O)n3C)C(=O)O1 | 304 to 306
CCOC(=O)C1=C(COCc2nnn(CC(N)=O)n2)NC(C)=C(C(=O)OC)C1c1cccc(Cl)c1Cl (stereo not given) | 130 to 132
CN1C(=O)C(F)N=C(c2ccccc2Cl)c2cc(Cl)ccc21 (stereo not given) | 204 to 205
O=[N+]([O-])c1ccc(OCc2ccc(F)cc2)cc1F | 90 to 91
O=C(O)C(O)c1ccc2ccccc2c1 (racemic) | 164 to 166
COc1c(C2CCN(CCCCOc3ccc(-c4ccc(C#N)cc4)cc3)CC2)ccc2ccccc12 | 142
COc1ccc(C(=O)c2ccc(Sc3ccc(Cl)cc3)cc2)cc1OC | 118 to 120
CCCCCS(=O)(=O)NC(=O)/C=C/c1cc(C2CC2)nn1Cc1ccc(C(F)(F)F)cc1Cl | 139 to 140
COc1cc(Cl)c(Cl)cc1Oc1ccc(Cl)cc1 | 105
CC1(C)CC(O)CC(C)(C)N1Cc1ccc(CN2C(C)(C)CC(O)CC2(C)C)cc1 | 237 to 239
COCCOc1ccc(CCCOC(=O)NCC2CC2)c(Oc2ncc(C(F)(F)F)cc2Cl)c1 | 87.8 to 87.9
COC1CN(Cc2ccc(Nc3cc(-c4cccc(-n5ncc6cc(C(C)(C)C)cc(F)c6c5=O)c4CO)nn(C)c3=O)nc2)C1 | 140 to 142
COc1ccccc1N1CCN(S(=O)(=O)c2ccc(/C=C/C(=O)NO)cc2)CC1 | 225 to 226
Cc1cc2c(-c3ccccc3)c(NC(=O)N(C)Cc3ccccc3)n(C)c(=O)c2cc1C | 174 to 176
CS(=O)(=O)c1ccc(C(=O)O)c(Cl)c1F | 204
NS(=O)(=O)c1ccc(-n2nc(C(F)(F)F)c(Cl)c2-c2ccc(-c3cncs3)c(Cl)c2)cn1 | 191 to 193

Compound | melting point [°C]
COc1cc(OC)cc(N2CCN(C(=S)Nc3cc(C)c(C)cc3OC)CC2)c1 | 128 to 129
ClC1(c2ccccc2)c2ccccc2-c2ncncc21 (stereo not given) | 119 to 120
CC(=O)OCc1c(C#N)cnc2c(NC(=O)c3c(Cl)cccc3Cl)cccc12 | 201 to 203
CNc1nc(SC)ncc1CO | 155 to 157
O=C(O)C1CCc2cc(O)ccc21 (stereo not given) | 137 to 138
O=C(O)c1ccc(NCC=Cc2ccccc2)cn1 | 178 to 183
Cc1c(C(=O)Nc2nncs2)nnn1Cc1ccc(Cl)c(Cl)c1 | 216
Nc1nc2c(ncn2COCCCP(=O)(O)O)c(=O)[nH]1 | 202
CCCCc1c(C=O)ccc2c(OC)cccc12 | 61.5 to 62.5
COc1cc2c(cc1OCc1ccccc1)CCN(Cc1ccncc1)C2 | 125 to 126
CC(N1CCN(c2ncnn2Cc2ccc(C(C)(C)C)cc2)CC1)C(O)(Cn1cncn1)c1ccc(F)cc1F (stereo not given) | 73 to 75
CC1c2ccccc2CC(O)Cc2ccccc21 (stereo not given) | 142 to 145
CCC(=O)NN(C(C)=O)[C@@H]1c2cc(C#N)ccc2OC(C)(C)[C@H]1O (relative stereo) | 201 to 203
Cc1ccc([N+](=O)[O-])c(-c2nc(C(F)(F)F)cs2)c1 | 98 to 104
Cc1cc(CCC(=O)OC(C)(C)C)cc(-c2nc(=O)c3ccccc3s2)n1 | 129 to 130
CC#CC(C)Oc1cc(N)c(Cl)cc1C(=O)O (stereo not given) | 114 to 116
COc1cc(-c2nc(C(C)C)no2)cc2oc(=O)c(C)c(C)c12 | 142
CCc1c(S(=O)(=O)c2ccc(=O)[nH]n2)oc2ccc(Cl)cc12 | 209 to 210
CC(=O)NCCc1nnc(S)s1 | 157 to 160
CCOC(=O)c1cc2cc(C#N)ccc2s1 | 138 to 139
CCc1[nH]nc(C(=O)NC2CCCC2)c1NC(=O)c1cnccn1 | 175 to 176
CC(=O)c1cc2c(s1)S(=O)(=O)CCc1cc(=O)n(-c3ccc(Cl)cc3)nc1-2 | 272 to 273
O=[N+]([O-])CC1(SCc2ccccc2)CCC2(CC1)OCCO2 | 121 to 122
CC1CC(C)CN(S(=O)(=O)c2cc(Cl)cc(C(=O)O)c2)C1 (stereo not given) | 226 to 231
O=C(C(=O)c1ccc(Oc2ccc(Br)cc2)cc1)c1ccccc1 | 85 to 86

Compound | melting point [°C]
CCOc1ccc(NC=C(C#N)C(=O)Nc2cc(OC)c(Cl)cc2Cl)cc1I | > 245
Cc1ccc(C(=O)c2ccc(OCC(=O)O)c(Cl)c2Cl)cc1 | 176 to 177
CC1(C)Oc2ccc(C#N)cc2[C@@H](NC2=CC(=O)CC2)[C@@H]1O (relative stereo) | 174 to 176
CC(=O)OCC(COCn1cnc2c(=O)[nH]c(N)nc21)OC(C)=O (stereo not given) | 222 to 224
NP(N)(=O)NC(=O)c1ccc(F)cc1 | 255 to 257
CC1(C)CCC(C)(C)c2cc(NC(=O)c3ccc(OCCN4CCOCC4)cc3)ccc21 | 130 to 132
COC(=O)C(Cc1cc(OC)cc(OC)c1)c1ccc(Oc2ccc(C=C3SC(=O)NC3=O)cc2)cc1 (stereo not given) | 104 to 106
COc1ccc2c(c1)C(=O)Nc1ccccc1N2 | 216 to 218
COc1cc2c(cc1O)C(OC)CN(Cc1cc(OC)c(OC)c(OC)c1)C2 (stereo not given) | 51 to 54
CN(C)S(=O)(=O)c1cc2c(c(Cl)c1Cl)OC(C(=O)OCOC(=O)C(C)(C)C)C2 (stereo not given) | 113 to 114
O=[N+]([O-])c1cc(-c2ccccc2)ccc1Cl | 43 to 44
Cc1cc(=O)oc2nn(C(C)C)c(C)c12 | 164 to 166
COc1cc2c(cc1O)CCN(C(=O)c1ccccc1OC)C2=O | 199 to 200
CSC(=S)Nc1ccc(OCc2nc3ccccc3s2)cc1C | 133 to 135
CCCCCCCCCCCCCCCCCCc1ccc(O)c([N+](=O)[O-])c1 | 71
C[C@@H]1OC(=O)C2=C[C@H]3CCCC[C@@H]3[C@@H](O)[C@H]21 | 191 to 193
O=c1[nH]c2ccc(C(c3ccc(Cl)cc3)n3ccnc3-c3ccccc3)cc2c(Oc2cccc(Cl)c2)c1CO (stereo not given) | 246
CN(CCO)C(=O)NC(CS)Cc1ccccc1 (single isomer, unassigned; (+)) | 86
CC(C)(C)c1ccc(OC2CCOC2)c(N)c1 (stereo not given) | 79 to 82
O=S(=O)(COc1ncc(Cl)cn1)c1ncc(Cl)cn1 | 135
CN(C)C1(c2ccccc2)CCC(c2c[nH]c3ncccc23)CC1 (stereo not given) | 130 to 133
CC1(C)CC(OC(=O)Nc2ccccc2)CC(C)(C)N1OC(=O)Nc1ccccc1 | 188 to 190
Cc1cccc(C(C#N)N2CCOCC2)c1 (stereo not given) | 59 to 60
O=C(O)c1ccc(OCCCCCCCCCCO)cc1 | 115 to 117
O=C(O)CN1C(=O)C(=Cc2c[nH]c3ccc(Cl)cc23)SC1=S | 278 to 282

Compound | melting point [°C]
COc1ccc(NC(=S)c2ccc(N(C)C)cc2)cc1 | 192
COc1cc2c(c3c1OC(C)(C)C3)C(c1ccnc(-n3c(=O)ccc4ccccc43)c1)=NC(C)(C)C2 | 190 to 191
CCNc1ccc2c(c1)CNC2 | 69 to 71
CCOC(=O)N1C=CSC1C1=C(C)N=CC(OC)(OC)S1 (stereo not given) | 148 to 149
CCOC(=O)CN1CCN(c2cccc(C3=NC(C)(C)Cc4cc(OC)c5c(c43)CC(C)(C)O5)c2)S1(=O)=O | 153 to 155
CS(=O)(=O)c1ccc(-c2cnn(C3C4CC5CC(C4)CC3C5)c(=O)c2-c2ccc(F)cc2)cc1 (stereo not given) | 195 to 197
CC(=O)c1ccc(OCCOc2ccc3ccccc3c2)c(Cl)c1 | 164 to 166
C[C@@H](NC(=O)c1ccc(-c2ccc(Cl)cc2)o1)[C@](O)(Cn1cncn1)c1ccc(F)cc1F | 218 to 219
Cc1nc2cccc(C)n2c(=O)c1CCN1CCC(c2c[nH]c3ccccc23)CC1 | 225
CCCCCCCCCCCCCCCCCCOC(=O)Nc1ccc(NC(=O)NS(=O)(=O)c2ccc(OC)cc2)cc1 | 190
CSc1cnc2ccsc2c1O | 210 to 212
Cc1cc(-c2nnn(C)n2)cc(C)c1OCCCn1ncnc1C | 126 to 128
COc1ccc(S(=O)(=O)CC(=O)C(C)C)cc1 | 48 to 49.5
CC(C)c1cccc(C(C)C)c1NC(=O)N(Cc1ccc(N(C)C)cc1)c1ccc(C(C)(C)C)cc1 | 154 to 155
CC(=O)NC[C@H]1CN(c2ccc(N3CCC(=C(C)C#N)CC3)cc2)C(=O)O1 | 94 to 96
N#CC(C=CC=O)=C(c1ccc(F)cc1)c1ccc(F)cc1 | 155 to 156
CC(C)OC(=O)OCC1(C)COC(=O)OC1 | 64 to 65
O=C(c1ccccc1)c1ccc(N2CCN(c3ccncc3)CC2)cc1 | 136 to 137
CC(=O)c1ccc(N(C2CC2)S(=O)(=O)c2cccc(C(=O)Nc3ccc(C#N)cc3)c2)cc1 | 185 to 186
N#CCOC(=O)c1ccc(C(c2ccccc2)(c2ccccc2)c2ccccc2)cn1 | 173 to 175
CCCCNC(=O)NS(=O)(=O)c1c(C(=O)OC)cnn1C | 88 to 90
CCCCN1CCOC2c3cccc4[nH]cc(c34)CC21 (stereo not given) | 134 to 140
O=C1C2CC3CCC(C2)N3C1C(c1ccccc1)c1ccccc1 (stereo not given) | 137 to 138
COC(=O)c1c(Cl)cc(Cl)cc1NC(=O)CSc1cccc(OC)c1 | 89 to 90
COC(=O)c1ccc(Oc2ccccc2C=O)c([N+](=O)[O-])c1 | 109 to 110
